Experimental data reported in US20070049564A1 (Wyeth, priority 2005, published 2007).
Converted amounts (≈) assume the structure as drawn. Read-outs that look alike come from different tables or passages of the source.

Key:
S. aureus GC 6467 = assay: MIC, broth microdilution; conditions: Staphylococcus aureus
E. coli GC 2232 = assay: MIC, broth microdilution; conditions: Escherichia coli, GC2232, read-out: MINIMAL INHIBITORY CONCENTRATION MIC, pre-incubated in Water
E. faecalis GC 4555 = assay: MIC, broth microdilution; conditions: for MIC: Enterococcus faecalis
E. coli GC 2203 = assay: MIC, broth microdilution; conditions: Escherichia coli, GC2203, read-out: MINIMAL INHIBITORY CONCENTRATION MIC, pre-incubated in Water
E. faecium GC 2243 = assay: MIC, broth microdilution; conditions: for MIC: Enterococcus faecium
E. coli GC 6465 = assay: MIC, broth microdilution; conditions: Escherichia coli, GC6465, read-out: MINIMAL INHIBITORY CONCENTRATION MIC, pre-incubated in Water
E. coli GC 4560 = assay: MIC, broth microdilution; conditions: Escherichia coli, GC4560, read-out: MINIMAL INHIBITORY CONCENTRATION MIC, pre-incubated in Water
S. pneumoniae* GC 4465 = assay: MIC, broth microdilution; conditions: for MIC: Streptococcus pneumoniae
E. coli GC 3226 = assay: MIC, broth microdilution; conditions: Escherichia coli, GC3226, read-out: MINIMAL INHIBITORY CONCENTRATION MIC, pre-incubated in Water
E. coli = assay: Range of MIC for E. coli strains; conditions: Escherichia coli
E. faecalis GC 2267 = assay: MIC, broth microdilution; conditions: for MIC: Enterococcus faecalis
S. aureus GC 4536 = assay: MIC, broth microdilution; conditions: for MIC: Staphylococcus aureus
E. faecalis GC 2265 = assay: MIC, broth microdilution; conditions: for MIC: Enterococcus faecalis
E. coli GC 2231 = assay: MIC, broth microdilution; conditions: Escherichia coli, GC2231, read-out: MINIMAL INHIBITORY CONCENTRATION MIC, pre-incubated in Water
S. typhimurium GC 2172 = assay: MIC, broth microdilution; conditions: for MIC: Salmonella enterica, TYPHIMURIUM
Staph. = assay: Range of MIC for Staph. strains, including MRSA; conditions: Staphylococcus aureus
E. coli GC 2272 = assay: MIC, broth microdilution; conditions: Escherichia coli, GC2272, read-out: MINIMAL INHIBITORY CONCENTRATION MIC, pre-incubated in Water
S. aureus GC 6469 = assay: MIC, broth microdilution; conditions: for MIC: Staphylococcus aureus
S. aureus GC 6466 = assay: MIC, broth microdilution; conditions: for MIC: Staphylococcus aureus
S. agalactiae GC 4564 = assay: MIC, broth microdilution; conditions: Streptococcus agalactiae, GC4564, read-out: MINIMAL INHIBITORY CONCENTRATION MIC, pre-incubated in Water
Description: Antimicrobial susceptibility testing. The in vitro activities of the antibiotics are determined by the broth microdilution method as recommended by the National Committee for Clinical Laboratory Standards (NCCLS) (1). Mueller-Hinton II broth (MHBII)(BBL Cockeysville, Md.) is the medium employed in the testing procedures. Microtiter plates containing serial dilutions of each antimicrobial agent are inoculated with each organism to yield the appropriate density (10^5 CFU/ml) in a 100 μl final volume. The plates are incubated for 18-22 hours at 35° C. in ambient air.
Representative compounds were first incubated in mouse serum for an hour prior to the in vitro testing against a panel of selected gram-positive and gram-negative bacteria strains. All compounds were also pre-incubated in water for an hour prior to testing as control. Representative compounds of Formula I were incubated in human serum prior to MIC determination.

[1] = read-out: MINIMAL INHIBITORY CONCENTRATION MIC, pre-incubated in Mouse Serum
[2] = read-out: MINIMAL INHIBITORY CONCENTRATION MIC, pre-incubated in Water

CN(C)c1cc(NC(=O)CN(C(=O)OCOC(=O)CC(C)(C)C)C(C)(C)C)c(O)c2c1C[C@H]1C[C@H]3[C@H](N(C)C)C(O)=C(C(N)=O)C(=O)[C@@]3(O)C(O)=C1C2=O [Example 42, ({[(2-{[(5aR,6aS,7S,10aS)-9-(aminocarbonyl)-4,7-bis(dimethylamino)-1,8,10a,11-tetrahydroxy-10,12-dioxo-5,5a,6,6a,7,10,10a,12-octahydrotetracen-2-yl]amino}-2-oxoethyl)(tert-butyl)amino]carbonyl}oxy)methyl 3,3-dimethylbutanoate]
MIC (S. aureus GC 6467; GC6467, read-out: MINIMAL INHIBITORY CONCENTRATION MIC, pre-incubated in Mouse Serum): 4 µg/mL (≈ 5.28 µM) | MIC (S. aureus GC 6467; GC6467, read-out: MINIMAL INHIBITORY CONCENTRATION MIC, pre-incubated in Water): 8 µg/mL (≈ 10.6 µM) | MIC (E. coli GC 2232): > 64 µg/mL | MIC (E. faecalis GC 4555; GC4555, read-out: MINIMAL INHIBITORY CONCENTRATION MIC, pre-incubated in Mouse Serum): 2 µg/mL (≈ 2.64 µM) | MIC (E. faecalis GC 4555; GC4555, read-out: MINIMAL INHIBITORY CONCENTRATION MIC, pre-incubated in Water): 4 µg/mL (≈ 5.28 µM) | MINIMAL INHIBITORY CONCENTRATION MIC (E. faecalis GC 4555; pre-incubated in Mouse Serum): 4 UG/ML | MIC (E. coli GC 2203): > 64 µg/mL | MIC (E. faecium GC 2243; GC2243, read-out: MINIMAL INHIBITORY CONCENTRATION MIC, pre-incubated in Mouse Serum): 2 µg/mL (≈ 2.64 µM) | MIC (E. faecium GC 2243; GC2243, read-out: MINIMAL INHIBITORY CONCENTRATION MIC, pre-incubated in Water): 4 µg/mL (≈ 5.28 µM) | MINIMAL INHIBITORY CONCENTRATION MIC (E. faecium GC 2243; pre-incubated in Mouse Serum): 4 UG/ML | MIC (E. coli GC 6465): > 64 µg/mL | MIC (E. coli GC 4560): 8 µg/mL (≈ 10.6 µM) | MIC (S. pneumoniae* GC 4465; [1]): 2 µg/mL (≈ 2.64 µM) | MIC (S. pneumoniae* GC 4465; [2]): 4 µg/mL (≈ 5.28 µM) | MINIMAL INHIBITORY CONCENTRATION MIC (S. pneumoniae* GC 4465; pre-incubated in Mouse Serum): 4 UG/ML | MIC (E. coli GC 3226): > 64 µg/mL | MIC (E. coli; 20 h, read-out: Range of MIC, E. coli (Mouse Serum)): 4 to 16 µg/mL (≈ 5.28 to 21.1 µM) | MIC (E. coli; read-out: Minimum inhibitory concentration (MIC), E. coli (Human Serum)): > 64 µg/mL | MIC (E. coli; read-out: Minimum inhibitory concentration (MIC), E. coli (water)): > 64 µg/mL | MIC (E. coli; read-out: Range of MIC, E. coli (Water)): > 64 µg/mL | MIC (E. faecalis GC 2267; GC2267, read-out: MINIMAL INHIBITORY CONCENTRATION MIC, pre-incubated in Mouse Serum): 2 µg/mL (≈ 2.64 µM) | MIC (E. faecalis GC 2267; GC2267, read-out: MINIMAL INHIBITORY CONCENTRATION MIC, pre-incubated in Water): 4 µg/mL (≈ 5.28 µM) | MINIMAL INHIBITORY CONCENTRATION MIC (E. faecalis GC 2267; pre-incubated in Mouse Serum): 4 UG/ML | MIC (S. aureus GC 4536; GC4536, read-out: MINIMAL INHIBITORY CONCENTRATION MIC, pre-incubated in Mouse Serum): 2 µg/mL (≈ 2.64 µM) | MIC (S. aureus GC 4536; GC4536, read-out: MINIMAL INHIBITORY CONCENTRATION MIC, pre-incubated in Water): 8 µg/mL (≈ 10.6 µM) | MINIMAL INHIBITORY CONCENTRATION MIC (S. aureus GC 4536; pre-incubated in Mouse Serum): 4 UG/ML | MIC (E. faecalis GC 2265; GC2265, read-out: MINIMAL INHIBITORY CONCENTRATION MIC, pre-incubated in Mouse Serum): 2 µg/mL (≈ 2.64 µM) | MIC (E. faecalis GC 2265; GC2265, read-out: MINIMAL INHIBITORY CONCENTRATION MIC, pre-incubated in Water): 8 µg/mL (≈ 10.6 µM) | MINIMAL INHIBITORY CONCENTRATION MIC (E. faecalis GC 2265; pre-incubated in Mouse Serum): 4 UG/ML | MIC (E. coli GC 2231): > 64 µg/mL | MIC (S. typhimurium GC 2172; [1]): 64 µg/mL (≈ 84.5 µM) | MIC (S. typhimurium GC 2172; [2]): > 64 µg/mL | MINIMAL INHIBITORY CONCENTRATION MIC (S. typhimurium GC 2172; pre-incubated in Mouse Serum): >64 UG/ML | MIC (Staph.; MRSA, read-out: Range of MIC, Staph (Mouse Serum)): 2 to 4 µg/mL (≈ 2.64 to 5.28 µM) | MIC (Staph.; MRSA, read-out: Range of MIC, Staph (Water)): 4 to 8 µg/mL (≈ 5.28 to 10.6 µM) | MIC (Staph.; read-out: Minimum inhibitory concentration (MIC), Staph (Human Serum)): 2 to 4 µg/mL (≈ 2.64 to 5.28 µM) | MIC (Staph.; read-out: Minimum inhibitory concentration (MIC), Staph (Water)): 4 to 8 µg/mL (≈ 5.28 to 10.6 µM) | MIC (E. coli GC 2272): > 64 µg/mL | MIC (S. aureus GC 6469; GC6469, read-out: MINIMAL INHIBITORY CONCENTRATION MIC, pre-incubated in Mouse Serum): 2 µg/mL (≈ 2.64 µM) | MIC (S. aureus GC 6469; GC6469, read-out: MINIMAL INHIBITORY CONCENTRATION MIC, pre-incubated in Water): 4 µg/mL (≈ 5.28 µM) | MINIMAL INHIBITORY CONCENTRATION MIC (S. aureus GC 6469; pre-incubated in Mouse Serum): 4 UG/ML | MIC (S. aureus GC 6466; GC6466, read-out: MINIMAL INHIBITORY CONCENTRATION MIC, pre-incubated in Mouse Serum): 2 µg/mL (≈ 2.64 µM) | MIC (S. aureus GC 6466; GC6466, read-out: MINIMAL INHIBITORY CONCENTRATION MIC, pre-incubated in Water): 4 µg/mL (≈ 5.28 µM) | MINIMAL INHIBITORY CONCENTRATION MIC (S. aureus GC 6466; pre-incubated in Mouse Serum): 4 UG/ML | MIC (S. agalactiae GC 4564): 8 µg/mL (≈ 10.6 µM)
